Source: patent US20220401514A1, “ANTIMICROBIAL, BACTERIOPHAGE-DERIVED POLYPEPTIDES AND THEIR USE AGAINST GRAM-NEGATIVE AND ACID-FAST BACTERIA” (CONTRAFECT CORPORATION, priority 2019, published 2022)
≈ marks a conversion by molar mass, not a printed value. Read-outs that look alike come from different tables or passages of the source.

What was measured:
[1] = system: eight different strains of five species of Gram-negative bacteria; assay: MBEC in eight strains of five species of Gram-negative bacteria; assay type: cell-based; conditions: for MBEC: 24 h biofilm in LB, 16 h treatment
Procedure: Determination of Minimal Biofilm Eradicating Concentrations (MBEC). […] The OD600 of extracted crystal violet was determined. The MBEC value of each sample was determined as the minimum drug concentration required to remove >95% of biofilm biomass as assessed by crystal violet quantitation (in comparison to untreated controls).
MBEC values were likewise determined for Chp2, Chp2-M1, and Chp10-M1 in eight different strains of five species of Gram-negative bacteria. […] The films were then washed and stained with crystal violet to visualize the MBEC.

[2] = system: Acinetobacter baumannii strain 30; assay: Checkerboard assay (FICI) with antibiotics, A. baumannii; assay type: cell-based; set-up: key to FIC Index: FICI = FIC A + FIC B; ≤0.5 synergy, ≥2 antagonism; conditions: for Antibiotic FIC / Antibiotic MIC / Chp peptide FIC / Chp peptide MIC: checkerboard
[3] = system: P. aeruginosa strain CFS 1292; assay type: cell-based, Pseudomonas aeruginosa; conditions: for change in MIC after 21 days: serial passage
P. aeruginosa (CFS 1292) = assay: microbe, parasite or virus in culture; assay type: cell-based, Pseudomonas aeruginosa; conditions: for MIC: Pseudomonas aeruginosa
[4] = system: mature biofilms formed by P. aeruginosa strain ATCC 17647; assay: Minimal Biofilm Eradicating Concentration (MBEC), Calgary Biofilm Device, crystal violet; assay type: cell-based, Pseudomonas aeruginosa
Procedure: Biofilms are then washed and treated with e.g., a 2-fold dilution series of the lysin in TSBg at e.g., 37° C. for 24 hours. After treatment, wells are washed, air-dried at e.g., 37° C. and stained with e.g., 0.05% crystal violet for 10 minutes.
Determination of Minimal Biofilm Eradicating Concentrations (MBEC). […] Biofilms were washed and treated with a 2-fold dilution series of each peptide in TSBg at 37° C. for 16 hours. […] The OD600 of extracted crystal violet was determined.

[5] = system: P. aeruginosa strain PA20 persister cells; assay: Activity against persister cells, P. aeruginosa; assay type: cell-based, Pseudomonas aeruginosa
[6] = system: outer membrane of Gram-negative bacteria (including P. aeruginosa, E. cloacae, K. pneumoniae, E. coli, and A. baumannii); assay: Outer membrane permeabilization, NPN uptake; assay type: cell-based
Source text: NPN is largely excluded by intact Gram-negative bacteria, but enhanced uptake of NPN may occur in cells having a damaged or permeable outer membrane. NPN fluoresces strongly under hydrophobic conditions and weakly under aqueous conditions. Therefore, NPN's interaction with membrane phospholipids in the bacterial envelope increases its fluorescence signal and can be used as an indication of a compromised bacterial membrane and a measurement of the outer membrane permeability.

[7] = system: inner membrane of Gram-negative bacteria (including P. aeruginosa, E. cloacae, K. pneumoniae, E. coli, and A. baumannii); assay: Inner membrane depolarization, diSC3-5 release; assay type: cell-based
Source text: The mechanism of action of Chp peptides disclosed herein can also be evaluated by measuring the depolarization of the inner membrane of Gram-negative bacteria. […] Upon permeabilization of the outer membrane, the ability of Chp peptides to induce dissipation of the cytoplasmic membrane electrical potential gradient (Δψ) may be examined, for example by following the release of 3,3′-dipropylthiadicarbocyanine (diSC3-5) as a function of time compared to an untreated control. DiSC3-5 is a fluorophore that is a caged cation concentrated within the bacterial inner membrane and under the influence of the bacterial membrane electrical potential gradient. At high concentrations, diSC3-5 self-quenches, leading to the suppression of fluorescence. When the inner membrane deteriorates or becomes leaky for cations, including protons, the A it dissipates, which leads to a release of diSC3-5 and a subsequent increase in fluorescence.

[8] = system: Gram-negative bacteria (including P. aeruginosa, E. cloacae, K. pneumoniae, E. coli, and A. baumannii); assay: Propidium iodide uptake; assay type: cell-based
Source text: The damage caused by the Chp peptides disclosed herein to the outer and inner membranes of Gram-negative bacteria can also be assessed with impermeable dyes such as propidium iodide. […] AGENTS CHEMO. 2012; 56:5698-5708.

[9] = MBEC assay format, summary statement, strain not stated there
[10] = P. aeruginosa ATCC 17647 mature biofilm, tryptic soy broth with 2% glucose
[11] = in combination with Azithromycin
[12] = in combination with Ciprofloxacin
[13] = in combination with Levofloxacin
[14] = in combination with Piperacillin

## NC[C@H]1O[C@H](O[C@H]2[C@H](O)[C@@H](O[C@H]3O[C@H](CO)[C@@H](O)[C@H](N)[C@H]3O)[C@H](N)C[C@@H]2N)[C@H](N)C[C@@H]1O [tobramycin, reference compound]
[1]; A. baumanni (ATCC BAA-747)
  MBEC: 0.03 µg/mL
[1]; E. cloacae (CCUG 63317)
  MBEC: <0.03 µg/mL
[1]; E. coli (ATCC 25922)
  MBEC: <0.03 µg/mL
[1]; E. coli (ATCC 35329)
  MBEC: <0.03 µg/mL
[1]; E. coli (EC2)
  MBEC: <0.03 µg/mL
[1]; K. pneumoniae (ATCC 700603)
  MBEC: 1 µg/mL
[1]; K. pneumoniae (KP1)
  MBEC: 1 µg/mL
[1]; P. aeruginosa (ATCC 27853)
  MBEC: 0.03 µg/mL
[2]; in combination with Chp2
  Antibiotic FIC: 0.125
  Antibiotic MIC: 0.01562 mg/L
[2]; in combination with Chp2-M1
  Antibiotic FIC: 0.25
  Antibiotic MIC: 0.01562 mg/L
[2]; in combination with Chp4-M1
  Antibiotic FIC: 0.5
[2]; in combination with Chp6-M1
  Antibiotic FIC: 0.25
  Antibiotic MIC: 0.01562 mg/L
[2]; in combination with Chp10-M1
  Antibiotic FIC: 0.25
  Antibiotic MIC: 0.01562 mg/L
[2]; in combination with Unp2-M1
  Antibiotic FIC: 0.25
  Antibiotic MIC: 0.01562 mg/L
[3]
  change in MIC after 21 days: significant increases
P. aeruginosa (CFS 1292); read-out: MIC Center
  MIC: 0.5 mg/L (≈ 1.07 µM)
P. aeruginosa (CFS 1292); read-out: MIC Periphery
  MIC: 0.5 mg/L (≈ 1.07 µM)

## MARRYRLSRRRSRRLFSRTALRMHRRNRLRRIMRGGIRF [Chp4]
[4]; [9]
  MBEC: 0.25 µg/mL
[4]; [10]
  MBEC: 0.25 µg/mL

## MRLKMARRRYRLPRRRSRRLFSRTALRMHPRNRLRRIMRGGIRF [Chp2]
[4]; [9]
  MBEC: 0.25 µg/mL
[4]; [10]
  MBEC: 0.25 µg/mL
[1]; A. baumanni (ATCC BAA-747)
  MBEC: 0.5 µg/mL
[1]; E. cloacae (CCUG 63317)
  MBEC: 2 µg/mL
[1]; E. coli (ATCC 25922)
  MBEC: 2 µg/mL
[1]; E. coli (ATCC 35329)
  MBEC: 4 µg/mL
[1]; E. coli (EC2)
  MBEC: 2 µg/mL
[1]; K. pneumoniae (ATCC 700603)
  MBEC: 4 µg/mL
[1]; K. pneumoniae (KP1)
  MBEC: 2 µg/mL
[1]; P. aeruginosa (ATCC 27853)
  MBEC: 0.25 µg/mL
[1]; biofilms formed 24 hours in LB, treated 16 hours
  antibiofilm activity (MBEC): potent antibiofilm activity
[2]; Chp peptide + Amikacin
  FIC Index: 0.281
[2]; Chp peptide + Azithromycin
  FIC Index: 0.563
[2]; Chp peptide + Aztreonam
  FIC Index: 0.313
[2]; Chp peptide + Ciprofloxacin
  FIC Index: 0.531
[2]; Chp peptide + Colistin
  FIC Index: 0.375
[2]; Chp peptide + Gentamicin
  FIC Index: 0.313
[2]; Chp peptide + Imipenem
  FIC Index: 0.531
[2]; Chp peptide + Levofloxacin
  FIC Index: 0.5
[2]; Chp peptide + Meropenem
  FIC Index: 0.375
[2]; Chp peptide + Piperacillin
  FIC Index: 0.375
[2]; Chp peptide + Tobramycin
  FIC Index: 0.188
[2]; in combination with Amikacin
  Chp peptide FIC: 0.03125
  Chp peptide MIC: 0.03125 mg/L
[2]; [11]
  Chp peptide FIC: 0.0625
  Chp peptide MIC: 0.03125 mg/L
[2]; in combination with Aztreonam
  Chp peptide FIC: 0.0625
  Chp peptide MIC: 0.0625 mg/L
[2]; [12]
  Chp peptide FIC: 0.5
  Chp peptide MIC: 0.5 mg/L
[2]; in combination with Colistin
  Chp peptide FIC: 0.25
  Chp peptide MIC: 0.25 mg/L
[2]; in combination with Gentamicin
  Chp peptide FIC: 0.0625
  Chp peptide MIC: 0.0625 mg/L
[2]; in combination with Imipenem
  Chp peptide FIC: 0.03125
  Chp peptide MIC: 0.01562 mg/L
[2]; [13]
  Chp peptide FIC: 0.25
  Chp peptide MIC: 0.25 mg/L
[2]; in combination with Meropenem
  Chp peptide FIC: 0.125
  Chp peptide MIC: 0.125 mg/L
[2]; [14]
  Chp peptide FIC: 0.125
  Chp peptide MIC: 0.125 mg/L
[2]; in combination with Tobramycin
  Chp peptide FIC: 0.0625
  Chp peptide MIC: 0.0625 mg/L
[3]; 21-day study, Day 0, duplicates (1),(2)
  Serial Passage MIC Day 0: 0.25 mg/L
[3]; 21-day study, Day 21, duplicates (1),(2)
  Serial Passage MIC Day 21: 0.25 mg/L
[3]; Day 0, MIC of agent on untreated control culture
  Serial Passage MIC Day 0 (untreated): 0.25 mg/L
[3]; Day 0, cultures passaged with agent, duplicates (1),(2)
  Serial Passage MIC Day 0: 0.25 mg/L
[3]; Day 1, MIC of agent on untreated control culture
  Serial Passage MIC Day 1 (untreated): 0.25 mg/L
[3]; Day 1, cultures passaged with agent, duplicates (1),(2)
  Serial Passage MIC Day 1: 0.25 mg/L
[3]; Day 2, MIC of agent on untreated control culture
  Serial Passage MIC Day 2 (untreated): 0.25 mg/L
[3]; Day 2, cultures passaged with agent, duplicates (1),(2)
  Serial Passage MIC Day 2: 0.25 mg/L
[3]; Day 3, MIC of agent on untreated control culture
  Serial Passage MIC Day 3 (untreated): 0.25 mg/L
[3]; Day 3, cultures passaged with agent, duplicates (1),(2)
  Serial Passage MIC Day 3: 0.25 mg/L
[3]; Day 4, MIC of agent on untreated control culture
  Serial Passage MIC Day 4 (untreated): 0.25 mg/L
[3]; Day 4, cultures passaged with agent, duplicates (1),(2)
  Serial Passage MIC Day 4: 0.25 mg/L
[3]; Day 5, MIC of agent on untreated control culture
  Serial Passage MIC Day 5 (untreated): 0.25 mg/L
[3]; Day 5, cultures passaged with agent, duplicates (1),(2)
  Serial Passage MIC Day 5: 0.25 mg/L
[3]; Day 6, MIC of agent on untreated control culture
  Serial Passage MIC Day 6 (untreated): 0.25 mg/L
[3]; Day 6, cultures passaged with agent, duplicates (1),(2)
  Serial Passage MIC Day 6: 0.25 mg/L
[3]; Day 7, MIC of agent on untreated control culture
  Serial Passage MIC Day 7 (untreated): 0.25 mg/L
[3]; Day 7, cultures passaged with agent, duplicates (1),(2)
  Serial Passage MIC Day 7: 0.25 mg/L
[3]; Day 8, MIC of agent on untreated control culture
  Serial Passage MIC Day 8 (untreated): 0.25 mg/L
[3]; Day 8, cultures passaged with agent, duplicates (1),(2)
  Serial Passage MIC Day 8: 0.25 mg/L
[3]; Day 9, MIC of agent on untreated control culture
  Serial Passage MIC Day 9 (untreated): 0.25 mg/L
[3]; Day 9, cultures passaged with agent, duplicates (1),(2)
  Serial Passage MIC Day 9: 0.25 mg/L
[3]
  change in MIC after 21 days: no significant change
P. aeruginosa (CFS 1292); Passage #1, MIC of agent on untreated culture
  Passage MIC Passage #1 (Untreated): 0.25 mg/L
P. aeruginosa (CFS 1292); Passage #1, colonies from spot dilution, duplicates (1),(2)
  Passage MIC Passage #1: 0.25 mg/L
P. aeruginosa (CFS 1292); Passage #2, MIC of agent on untreated culture
  Passage MIC Passage #2 (Untreated): 0.25 mg/L
P. aeruginosa (CFS 1292); Passage #2, colonies from spot dilution, duplicates (1),(2)
  Passage MIC Passage #2: 0.25 mg/L
P. aeruginosa (CFS 1292); Passage #3, MIC of agent on untreated culture
  Passage MIC Passage #3 (Untreated): 0.25 mg/L
P. aeruginosa (CFS 1292); Passage #3, colonies from spot dilution, duplicates (1),(2)
  Passage MIC Passage #3: 0.25 mg/L
P. aeruginosa (CFS 1292); Passage #4, MIC of agent on untreated culture
  Passage MIC Passage #4 (Untreated): 0.25 mg/L
P. aeruginosa (CFS 1292); Passage #4, colonies from spot dilution, duplicates (1),(2)
  Passage MIC Passage #4: 0.25 mg/L
P. aeruginosa (CFS 1292); Passage #5, MIC of agent on untreated culture
  Passage MIC Passage #5 (Untreated): 0.25 mg/L
P. aeruginosa (CFS 1292); Passage #5, colonies from spot dilution, duplicates (1),(2)
  Passage MIC Passage #5: 0.25 mg/L
P. aeruginosa (CFS 1292); spot dilution assay, colonies from center of clearing zone
  MIC Center: No growth
P. aeruginosa (CFS 1292); spot dilution assay, colonies from periphery of clearing zone
  MIC Periphery: 0.25 mg/L
P. aeruginosa (CFS 1292); spot dilution assay, untreated control
  MIC Untreated control: 0.25 mg/L
P. aeruginosa (CFS 1292); spot dilution colonies, five passages total
  propensity towards resistance: no propensity towards resistance
[5]; P. aeruginosa PA20 persister cells, Run #1, limit of detection 2-log10 CFU/mL
  Viable persister count after treatment (log10 CFU/mL): 2.7 Log10 (CFU/mL)
[5]; P. aeruginosa PA20 persister cells, Run #2, limit of detection 2-log10 CFU/mL
  Viable persister count after treatment (log10 CFU/mL): 2.3 Log10 (CFU/mL)
[5]; P. aeruginosa PA20 persister cells, Run #3, limit of detection 2-log10 CFU/mL
  Viable persister count after treatment (log10 CFU/mL): 2 Log10 (CFU/mL)
[5]; P. aeruginosa PA20 persister cells, average of 3 runs
  Viable persister count after treatment (log10 CFU/mL): 2.3 Log10 (CFU/mL)
[5]; P. aeruginosa PA20 persister cells, log10 CFU/mL reduction as compared to buffer
  Delta Log: 2.1
[5]; P. aeruginosa persister cells, 1 hour at 37° C.
  log10 CFU/mL reduction as compared to buffer: 2.1 log10 CFU/mL
[6]
  outer membrane permeability (NPN uptake): dose-dependent increase in outer membrane permeability, equivalent to that of colistin, LL37, and melittin
[7]
  membrane depolarization (diSC3-5): dose-dependent increase in membrane depolarization, equivalent or superior to that of melittin, LL37, RI-18, and PMBN
[8]
  cell envelop permeability (propidium iodide uptake): dose-dependent increase in cell envelop permeability was equivalent to that of colistin, LL37, and melittin
